Active and inactive are the calls of the source. No cut-off for these calls is given here.
Experiments:
[1] = system: Bombus terrestris; experiment: Toxicity against worker Bombus terrestris (bumblebee) assessed as reduction in reproduction at 150 mg a.i./l, po administered through sugar water for 11 weeks measured once a week for 11 weeks relative to control; type: functional, organism-based
[2] = system: Bombus terrestris; experiment: Toxicity against worker Bombus terrestris (bumblebee) assessed as mortality at 150 mg a.i./l, po administered through sugar water for 11 weeks measured everyday for 3 days followed by once a week for 11 weeks; type: functional
[3] = system: Bombus terrestris; experiment: Toxicity against worker Bombus terrestris (bumblebee) assessed as mortality at 150 mg a.i./l, po administered through pollen for 11 weeks measured everyday for 3 days followed by once a week for 11 weeks; type: functional, organism-based
[4] = system: Bombus terrestris; experiment: Contact toxicity against worker Bombus terrestris (bumblebee) assessed as reduction in reproduction at 150 mg a.i./l applied on the dorsal thorax for 11 weeks measured once a week for 11 weeks relative to control; type: functional, organism-based
[5] = system: Bombus terrestris; experiment: Toxicity against worker Bombus terrestris (bumblebee) assessed as reduction in reproduction at 150 mg a.i./l, po administered through pollen for 11 weeks measured once a week for 11 weeks; type: functional; set-up: scale not given: the % may be the effect or the level left
[6] = system: Bombus terrestris; experiment: Contact toxicity against worker Bombus terrestris (bumblebee) assessed as mortality at 150 mg a.i./l applied on the dorsal thorax for 11 weeks measured everyday for 3 days followed by once a week for 11 weeks; type: functional
[7] = system: Bombus terrestris; experiment: Contact toxicity against worker Bombus terrestris (bumblebee) assessed as reduction in reproduction at 96 mg a.i./l applied on the dorsal thorax for 11 weeks measured once a week for 11 weeks relative to control; type: functional, organism-based
[8] = system: Bombus terrestris; experiment: Toxicity against po dosed worker Bombus terrestris (bumblebee) administered through sugar water for 11 weeks measured everyday for 3 days followed by once a week for 11 weeks; type: functional
[9] = system: Bombus terrestris; experiment: Toxicity against worker Bombus terrestris (bumblebee) assessed as mortality at 96 mg a.i./l, po administered through sugar water measured up to 1 week; type: functional, organism-based
[10] = system: Apis mellifera; experiment: Contact toxicity against Apis mellifera (honey bee) assessed per bee; type: functional
[11] = system: Bombus terrestris; experiment: Toxicity against worker Bombus terrestris (bumblebee) assessed as reduction in reproduction at 30 mg a.i./l, po administered through sugar water for 11 weeks measured once a week for 11 weeks relative to control; type: functional, organism-based
[12] = system: Bombus terrestris; experiment: Toxicity against worker Bombus terrestris (bumblebee) assessed as mortality at 96 mg a.i./l, po administered through sugar water for 11 weeks measured everyday for 3 days followed by once a week for 11 weeks; type: functional
[13] = system: Bombus terrestris; experiment: Toxicity against worker Bombus terrestris (bumblebee) assessed as mortality at 96 mg a.i./l, po administered through pollen for 11 weeks measured everyday for 3 days followed by once a week for 11 weeks; type: functional, organism-based
[14] = system: Bombus terrestris; experiment: Toxicity against worker Bombus terrestris (bumblebee) assessed as reduction in reproduction at 96 mg a.i./l, po administered through sugar water for 11 weeks measured once a week for 11 weeks relative to control; type: functional, organism-based
[15] = system: Bombus terrestris; experiment: Contact toxicity against worker Bombus terrestris (bumblebee) assessed as mortality at 96 mg a.i./l applied on the dorsal thorax for 11 weeks measured everyday for 3 days followed by once a week for 11 weeks; type: functional
[16] = system: Apis mellifera; experiment: Contact toxicity against Apis mellifera (honey bee) assessed per bee after 48 hr; type: functional
[17] = system: Bombus terrestris; experiment: Contact toxicity against Bombus terrestris (bumblebee) assessed per bee; type: functional
[18] = system: Bombus terrestris; experiment: Contact toxicity against worker Bombus terrestris (bumblebee) assessed as mortality at 500 mg a.i./l applied on the dorsal thorax for 11 weeks measured everyday for 3 days followed by once a week for 11 weeks; type: functional
[19] = system: Bombus terrestris; experiment: Toxicity against worker Bombus terrestris (bumblebee) assessed as reduction in reproduction at 500 mg a.i./l, po administered through sugar water for 11 weeks measured once a week for 11 weeks relative to control; type: functional, organism-based
[20] = system: Bombus terrestris; experiment: Toxicity against worker Bombus terrestris (bumblebee) assessed as mortality at 500 mg a.i./l, po administered through sugar water for 11 weeks measured everyday for 3 days followed by once a week for 11 weeks; type: functional
[21] = system: Bombus terrestris; experiment: Toxicity against worker Bombus terrestris (bumblebee) assessed as reduction in reproduction at 500 mg a.i./l, po administered through pollen for 11 weeks measured once a week for 11 weeks; type: functional; set-up: scale not given: the % may be the effect or the level left
[22] = system: Bombus terrestris; experiment: Contact toxicity against worker Bombus terrestris (bumblebee) assessed as reduction in reproduction at 500 mg a.i./l applied on the dorsal thorax for 11 weeks measured once a week for 11 weeks relative to control; type: functional, organism-based
[23] = system: Bombus terrestris; experiment: Toxicity against worker Bombus terrestris (bumblebee) assessed as mortality at 500 mg a.i./l, po administered through pollen for 11 weeks measured everyday for 3 days followed by once a week for 11 weeks; type: functional, organism-based

## CCCCCCCCCCCCC1=C(OC(C)=O)C(=O)c2ccccc2C1=O [ACEQUINOCYL]
[1]
  Activity: Active
[2]
  mortality at 150 µg/mL: < 25%
[3]
  Activity: inactive
[4]
  Activity: Active
[5]
  Activity: 50%
[6]
  mortality at 150 µg/mL: < 25%

## COc1ccc(-c2ccccc2)cc1NNC(=O)OC(C)C [BIFENAZATE]
[7]
  Activity: inactive
[8]
  LC50: 9.6 mgAi/L
  NOAEL: 0.096 mgAi/L
[9]
  Activity: Active
[10]
  LD50: <1 µg
[11]
  Activity: Active
[12]
  mortality at 96 µg/mL: 95%
[13]
  Activity: inactive
[14]
  Activity: Active
[15]
  mortality at 96 µg/mL: < 25%
[16]
  LD50: 8.5 µg
[17]
  LD50: >100 µg

## CC(C)OC(=O)C(O)(c1ccc(Br)cc1)c1ccc(Br)cc1 [BROMOPROPYLATE]
[18]
  mortality at 500 µg/mL: < 25%
[19]
  Activity: Active
[20]
  mortality at 500 µg/mL: < 25%
[21]
  Activity: 50%
[22]
  Activity: inactive
[23]
  Activity: inactive

## Clc1ccccc1-c1nnc(-c2ccccc2Cl)nn1 [CLOFENTEZINE]
[2]
  mortality at 150 µg/mL: 50%
[3]
  Activity: inactive
[4]
  Activity: Active
[5]
  Activity: 50%
[6]
  mortality at 150 µg/mL: < 25%

## ClC1=C(Cl)C(Cl)(C2(Cl)C(Cl)=C(Cl)C(Cl)=C2Cl)C(Cl)=C1Cl [DIENOCHLOR]
[18]
  mortality at 500 µg/mL: < 25%
[19]
  Activity: Active
[20]
  mortality at 500 µg/mL: 85%
[21]
  Activity: 50%
[22]
  Activity: inactive
[23]
  Activity: inactive

— ChEMBL document CHEMBL3045684, “Compatibility of traditional and novel acaricides with bumblebees (Bombus terrestris): a first laboratory assessment of toxicity and sublethal effects” (Pest Manag Sci, 2010)
